“And” between values parts separate entries of the source, which are not always exact repeats. Equal entries are not always repeated. The source made the active and inactive calls. The rule behind the calls is not given here. Starred links: 1 amine or outer side, 2 acyl side, 3 side chain; linkers in the order of their positions; H or OH if unused. Positions of bridges follow the written chain, without caps; N, C: chain ends. Non-standard residues stand in square brackets, D forms with d. Residues, ends and D or L forms follow the SMILES beside them. Chains are numbered I, II in the order given. Actinocin(9to1) = Cc1c2oc3c(C)ccc(C(=O)[*:1])c3nc-2c(C(=O)[*:2])c(N)c1=O; NMeV = CN[CH](C(=O)O)C(C)C; Sar = CNCC(=O)O Bounds are passed on as bounds.

The experiment concerns B cell line, CD40 signaling inhibition reporter. Briefly: CD40 pathway inhibition in B cells – B cell lineage, dose response (AID 1259332).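 Note: cells stimulated with CD40 ligand tCD40L.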

For orientation: AC50 means the concentration at which the activity in the assay is half-maximal. As for `COc1ccc(S(=O)(=O)Nc2ccc3c(c2)C(=O)N([C@@H](C)CO)C[C@@H](C)[C@@H](CN(C)Cc2ccc(C(F)(F)F)cc2)OCCCC[C@H](C)O3)cc1`, the AC50 was > 7 µM (inactive).

With `CC1=CC2OC3CC4OC(=O)C=CC=CC(=O)OCCC(C)C(O)C(=O)OCC2(CC1O)C4(C)C31CO1` (stereo not given), the AC50 was 0.0067 µM.

Take `Cc1c(CCOC(=O)CC23CC4CC(CC(C)(C4)C2)C3)sc[n+]1CC(=O)c1ccccc1`: the AC50 was 3.22 µM.

As for `C[C@H]1CN([C@@H](C)CO)C(=O)c2c(c3ccccc3n2C)-c2ccccc2CO[C@@H]1CN(C)S(=O)(=O)c1ccc([N+](=O)[O-])cc1`, the AC50 was > 20 µM (inactive).

On to `O=C1NC2C(=CC(O)C(O)C2O)c2cc3c(c(O)c21)OCO3` (stereo not given), for which the AC50 is 0.0711 µM.

Consider `Cc1ccc2nc(C(F)(F)F)c(C#N)c(N)c2c1`, for which the AC50 is 6.7 µM.

For `Cc1noc(C)c1S(=O)(=O)N(C)C[C@@H]1OCc2ccccc2-c2c(n(C)c3ccccc23)C(=O)N([C@@H](C)CO)C[C@@H]1C`, the AC50 is 11.3 µM.

As to `COc1cc(C(C)C)c2c(c1)S(=O)(=O)N(COc1cc(=O)n3cccc(OCCN4CCCCC4)c3n1)C2=O`, the AC50 was 2.64 µM.

With `O=S(=O)(/C(=C\c1ccc(C(F)(F)F)cc1)c1nc2ccccc2[nH]1)c1ccccc1`, the AC50 is 2.26 µM.

As for `CC(NCC(O)COCCC12CC3CC(CC(C3)C1)C2)c1ccccc1` (stereo not given), the AC50 was 4.88 µM.

Turning to `COc1ccc(/C=C/C(=O)Nc2ccccc2C(=O)O)cc1OC`, the AC50 was 6.12 µM.

For `COc1cccc(S(=O)(=O)N(C)C[C@H]2OCc3ccccc3-c3c(n(C)c4ccccc34)C(=O)N([C@H](C)CO)C[C@@H]2C)c1`, the AC50 was > 7 µM (inactive).

In the case of `O=C(Nc1ccc(C(F)(F)F)cc1)N1C[C@@H]2N[C@H](C1)C2c1ccc(-c2ccccc2)cc1` (stereo not given in full), the AC50 was 7.26 µM.

Consider `C[n+]1c2n(c3ccccc31)N=C(c1ccc(-c3ccccc3)cc1)CS2`, for which the AC50 was 1.21 µM.

Consider `COC(=O)c1ccccc1-c1c2ccc(=N)cc-2oc2cc(N)ccc12`, for which the AC50 is 10.9 µM.

As to `COc1ccc2c3c([nH]c2c1)[C@H](CO)N(C(=O)Nc1cccc(F)c1)CC31CCN(S(=O)(=O)c2cccc(C)c2)CC1`, the AC50 was > 20 µM (inactive).

On to `COc1ccc(S(=O)(=O)Nc2ccc3c(c2)C(=O)N([C@@H](C)CO)C[C@H](C)[C@@H](CN(C)Cc2ccc(C(F)(F)F)cc2)OCCCC[C@@H](C)O3)cc1`, for which the AC50 was 7.3 µM.

As for `CC1=CC(C)(C)N=C(Nc2nc(C)c3cc(C)cc(C)c3n2)N1`, the AC50 was 3.85 µM.

Turning to `Cc1cccc(-c2ccc(C3[C@@H]4CN(C(=O)Nc5ccc(C(F)(F)F)cc5)C[C@H]3N4)cc2)c1` (stereo not given in full), the AC50 was 7.37 µM.

For `COc1ccc(C[C@H]2NC[C@H](O)[C@H]2OC(C)=O)cc1`, the AC50 was 0.0235 µM.

Take `CC1(C)C(=O)C=C[C@@]2(C)C1C(=O)C(=O)[C@]1(C)C2CC[C@@]2(C)[C@H](c3ccoc3)C[C@H]3O[C@]321` (stereo not given in full): the AC50 is 3.47 µM.

As to `O=C(Nc1nnc(C2CC2)s1)C1CC(=O)N(c2ccc3c(c2)OCCO3)C1` (stereo not given), the AC50 is > 20 µM (inactive).

As for `CC(C)(C)NCC(=Cc1ccccc1)C(=O)c1ccccc1`, the AC50 is 7.22 µM.

For `CN1C(=O)c2cc(NC(=O)c3cccc(Cl)c3)ccc2OC[C@@H]2O[C@@H](CC(=O)NC3CCCCC3)CC[C@H]21`, the AC50 is > 20 µM (inactive).

For `C[C@@H]1CN([C@@H](C)CO)C(=O)c2ccccc2-c2ccccc2CO[C@H]1CN(C)Cc1ccccc1C(F)(F)F`, the AC50 was 8.01 µM.

`CC1OC(CC(=O)O)CC2=C1C(=O)c1c(O)cccc1C2=O` (stereo not given): the AC50 is 0.204 µM.

`N#C[C@H]1N[C@H](CO)[C@H]1c1ccc(C#CC2CCCC2)cc1`: the AC50 was 6.27 µM.

Regarding `O=C1C=CC(=O)c2c(O)c(N3CCN(CCOCCO)CC3)c(Br)c(O)c21`, the AC50 was 1.91 µM.

For `CC(C)=CCc1c2c(c3occ(-c4ccc(O)c(O)c4)c(=O)c3c1O)C=CC(C)(C)O2`, the AC50 was 4.31 µM.

`C[C@H](CO)N1C[C@H](C)[C@H](CN(C)S(=O)(=O)c2ccc([N+](=O)[O-])cc2)OCc2ccccc2-c2c(n(C)c3ccccc23)C1=O`: the AC50 is 9.57 µM.

Consider `C[C@H]1CN([C@@H](C)CO)C(=O)c2c(c3ccccc3n2C)-c2ccccc2CO[C@@H]1CN(C)Cc1cccc(C(F)(F)F)c1`, for which the AC50 was 2.17 µM.

On to `COc1cc(/C=N/n2cnnc2)ccc1OC(=O)c1ccncc1`, for which the AC50 was 3.6 µM.

With `CC1=C(O)C(=O)C=C2C1=CC=C1C2(C)CCC2(C)C3CC(C)(C(=O)O)CCC3(C)CCC12C` (stereo not given), the AC50 is 0.888 µM.

Take `NCCOc1ccc(C23CC4CC(CC(C4)C2)C3)cc1`: the concentration at half-maximal activity (AC50) was 5.74 µM.

Turning to `N#CC(C#N)=NNc1cccc(Cl)c1`, the AC50 was 6.54 µM.

Consider `C[C@@H]1CN([C@@H](C)CO)C(=O)c2c(c3ccccc3n2C)-c2ccccc2CO[C@@H]1CN(C)Cc1cccc(C(F)(F)F)c1`, for which the AC50 is 7.08 µM.

On to `Cc1ccc(S(=O)(=O)C=CS(=O)(=O)c2ccc(C)cc2)cc1`, for which the AC50 is 0.996 µM.

Turning to `COC(=O)C1=C(C)NC(C)=C(C(=O)OCCCN2CCC(c3ccccc3)(c3ccccc3)CC2)[C@H]1c1cccc([N+](=O)[O-])c1`, the AC50 was 11.4 µM.

For the compound `CCC(=O)O[C@]1(C(=O)CCl)[C@@H](C)C[C@H]2[C@@H]3CCC4=CC(=O)C=C[C@]4(C)[C@@]3(F)[C@@H](O)C[C@@]21C`, the AC50 is > 20 µM (inactive).

`CCN1C(=O)C(CC(=O)Nc2ccc(F)cc2)N(Cc2ccco2)C1=S` (stereo not given): the AC50 was 5.03 µM.

Regarding `COC(=O)C[C@](O)(CCCC(C)(C)O)C(=O)O[C@@H]1C(OC)=C[C@]23CCCN2CCc2cc4c(cc2[C@H]13)OCO4`, the AC50 is less than 0.0046 µM.

Turning to `Nc1ccc(-c2cccc3c(=O)cc(N4CCOCC4)oc23)cc1`, the AC50 was 10.9 µM.

Turning to `O=C1CC(c2ccc3c(c2)OCO3)Sc2nc3ccccc3n21` (stereo not given), the AC50 was 8.89 µM.

In the case of `CNc1c2cccc(C)c2nc2c(C(=O)NCCN(C)C)cccc12`, the AC50 is 0.266 µM.

In the case of `CC(C)CC#Cc1ccc([C@@H]2[C@H]3CN(C(=O)Nc4ccccc4)CCCCN3[C@H]2CO)cc1`, the concentration at half-maximal activity (AC50) was 9.52 µM.

Consider `CC(C)(C)[C@H](N)C(=O)N[C@H]1CCC2C3CC=C4C[C@@H](O)CC[C@]4(C)C3CC[C@@]21C` (stereo not given in full), for which the AC50 was 5.04 µM.

Consider `O=C(c1ccc(Nc2nccc(-c3cc4ccccc4s3)n2)cc1)N1CCC(N2CCCC2)CC1`, for which the AC50 is 1.07 µM and 0.541 µM.

As for `O=C1CCCCC1Sc1nnc(-c2ccc3c(c2)OCO3)o1` (stereo not given), the AC50 is 0.951 µM.

On to `C[C@@H]1CN([C@@H](C)CO)C(=O)c2c(c3ccccc3n2C)-c2ccccc2CO[C@H]1CN(C)C(=O)Nc1ccccc1C(F)(F)F`, for which the AC50 is 9.28 µM.

As to `CC(=O)OC1CCC2(C)C(CCC3C4CC=C(C(C)=O)C4(C)OC(=O)CC32)C1` (stereo not given), the AC50 is 2.3 µM.

As for `Cc1cc(C(=O)COC(=O)c2ccco2)c(C)n1Cc1ccco1`, the AC50 was 0.11 µM.

As to `COc1ccc2c3c(n(C)c2c1)[C@H](CO)N(C(=O)Nc1ccc(F)cc1)CC31CCN(C(=O)Nc2ccc(F)cc2F)CC1`, the AC50 is > 7 µM (inactive).

Consider `Cc1c2oc3c(C)ccc(C(=O)OC(C)C4NC(=O)C(C(C)C)N(C)C(=O)CN(C)C(=O)C5CCCN5C(=O)C(C(C)C)NC4=O)c3nc-2c(C(=O)OC(C)C2NC(=O)C(C(C)C)N(C)C(=O)CN(C)C(=O)C3CCCN3C(=O)C(C(C)C)NC2=O)c(N)c1=O` (stereo not given) (I: cyclo([Sar][NMeV]TVP) / II: cyclo([Sar][NMeV]TVP); linker I:3-II:3 via Actinocin(9to1); configuration not given here), for which the AC50 was 0.0309 µM.

For the compound `C[C@H]1CN([C@@H](C)CO)C(=O)c2ccccc2-c2ccccc2CO[C@H]1CN(C)C(=O)[C@@H](Cc1ccccc1)N(C)C`, the AC50 was > 20 µM (inactive).

As to `N#C[C@H]1[C@H](c2ccc(C#Cc3ccccc3F)cc2)[C@@H](CO)N1C(=O)C1CC1`, the AC50 is > 20 µM (inactive).

`Cc1ccc(N2CC(C(=O)Nc3nccs3)CC2=O)cc1Cl` (stereo not given): the AC50 was 8.73 µM.

As for `c1cc(-c2cnn3cc(-c4ccc(OCCN5CCCCC5)cc4)cnc23)ccn1`, the AC50 was 2.7 µM.

For `CN(C)c1ccc(NC(=O)c2cnsn2)cc1`, the AC50 was 6.15 µM.

As to `CCCCCCCCCCCCCCCC[n+]1ccccc1`, the AC50 was 0.266 µM.

In the case of `c1ccn2cc(-c3ccc4c(c3)OCCO4)nc2c1`, the AC50 was 10.2 µM.

`O=C(Cn1ncc(Cl)c(Cl)c1=O)NC1CCCCC1`: the AC50 was 4.96 µM.

For the compound `Nc1nc(=O)c2ccccc2s1`, the AC50 is 8.69 µM.

For `N#C[C@H]1[C@H](c2ccc(C#Cc3ccccc3F)cc2)[C@@H](CO)N1C(=O)c1cccnc1`, the AC50 was 2.93 µM.

In the case of `N#Cc1cccc(-c2ccc([C@@H]3[C@@H]4CN(S(=O)(=O)c5ccc(-c6ccccc6)cc5)C[C@H]3N4)cc2)c1`, the AC50 is > 20 µM (inactive).

Turning to `[O-]C(=C(C(=S)Nc1cccc2ccccc12)[n+]1ccccc1)c1ccc2c(c1)OCCO2`, the AC50 is > 20 µM (inactive).

Regarding `N#C[C@@H]1[C@H](c2ccc(C#Cc3ccccc3F)cc2)[C@@H](CO)N1C(=O)c1cccnc1`, the AC50 is 4.37 µM.

As to `CCCC(=O)NC1=C(Cl)C(=O)c2ccccc2C1=O`, the AC50 was 0.935 µM.

Turning to `CC1=NNC(=O)C1Br` (stereo not given), the AC50 was 7.86 µM.

On to `CC1CC(C)(C)Nc2ccc(OC(=O)c3ccco3)cc21` (stereo not given), for which the AC50 is 3.23 µM.

`N#CC(C#N)=NNc1ccc(OC(F)(F)F)cc1`: the AC50 was 3.97 µM.

For the compound `CCC1=C(CC2NCCc3ccccc32)CC2c3cc(OC)c(OC)cc3CCN2C1` (stereo not given), the AC50 was 1.75 µM.

As for `COCC(=O)N1[C@H](C#N)[C@H](c2ccc(C#Cc3ccccc3F)cc2)[C@H]1CO`, the AC50 was 0.856 µM.

Turning to `CC[C@@]1(O)C(=O)OCc2c1cc1n(c2=O)Cc2cc3c(CN(C)C)c(O)ccc3nc2-1`, the AC50 was 0.9 µM.

For the compound `COC(=O)c1ccc2nc(NC(=O)C(C)(C)C)sc2c1`, the AC50 was 1.9 µM.

As to `CC(C)Cc1ccc(C(C)CC2=CCC(CN(C)C)C2=O)cc1` (stereo not given), the AC50 was 3.99 µM.

In the case of `N#C[C@@H]1[C@@H](c2ccccc2-c2ccc(F)cc2)[C@H](CO)N1C(=O)NC1CCCCC1`, the AC50 was > 22 µM (inactive).

For the compound `CCCCCN1C=CC(=C2C(=O)c3ccccc3C2=O)C=C1`, the AC50 is 0.127 µM.

In the case of `COc1cc(C(=O)CCN2CCC(c3ccccc3)C2)cc(OC)c1OC` (stereo not given), the AC50 is 5.51 µM.

Consider `CC1CC(C)C(=O)C(C(O)CC2CC(=O)NC(=O)C2)C1` (stereo not given), for which the AC50 was 0.196 µM.

For the compound `C[C@H](CO)N1C[C@H](C)[C@H](CN(C)C(=O)C2CCOCC2)Oc2ncc(C#CCc3ccccc3)cc2C1=O`, the AC50 was 9.51 µM.

(Values after PubChem BioAssay AID1259332 (Broad Institute, 2017).)
